According to patent US20250052985A1, “SYSTEM AND METHOD FOR QUANTITATIVE PHASE IMAGING FOR MULTI-PARAMETRIC SCREENING OF TUMOR THERAPY RESPONSE” (UNIVERSITY OF UTAH RESEARCH FOUNDATION, priority 2023, published 2025):

Tests used:
Type in all cases: cell-based
HCI-039 PDxO cells = experiment: QPI on cells from patient-derived organoid HCI-039 (pleural effusion); conditions: HCI-039
Description: In some embodiments, the QPI microscope system 110 performs QPI on cells from patient-derived organoids and direct-from-patient samples. For example, the electronic controller 155 analyzes data on cells from a set of 5 organoids representing samples collected from two patients, as illustrated by a workflow 3400 in FIG. 24. The workflow 3400 is an experiment workflow illustrating how assays are analyzed by the QPI microscope system 110. In some embodiments, the QPI microscope system 110 images cells for 48 h, and uses an automatic segmentation algorithm, via the electronic controller 155, to identify individual cells from background, as shown in images 3405 and 3410 of FIG. 24. […] The electronic controller 155 determines the mass of each cell by summing the cell mass over the segmented area. In some embodiments, plots of mass over time reveal single cell growth rates, as shown by graph 3415 of FIG. 24. The graph 3415 is a mass vs. time plot showing DMSO treated cells growing cells at a typical location. Cells outlined in green are shown as green on the plot, other growing cells are shown in purple. The electronic controller 155 determine the specific growth rate (SGR) by fitting a line to time-series mass measurements and normalizing by an initial mass predicted by the fit to account for the effect of cell size on growth rate. The electronic controller 155 fits SGR as a function of dose to a sigmoidal dose response curve using a 3-parameter Hill model to extract dose response measurements, as shown by graph 3420 of FIG. 24. […] In some embodiments, EC50 measured by the QPI microscope system 110 is strongly concordant with gold standard techniques such as CTG over 27 conditions (e.g., 9 compounds, 3 breast cancer cell lines). […] As with cell line data, QPI data on cells from PDxO resolves differences in temporal dynamics of response to therapy, as shown in graph 3425 of FIG. 24. […] In some embodiments, the electronic controller 155 is configured to determine a drug response of each of the plurality of treatment samples from patient derived organoids. […]

HCI-038 PDxO cells = experiment: QPI on cells from patient-derived organoid HCI-038 (bone metastasis); conditions: HCI-038
Description: In some embodiments, the QPI microscope system 110 performs QPI on cells from patient-derived organoids and direct-from-patient samples. For example, the electronic controller 155 analyzes data on cells from a set of 5 organoids representing samples collected from two patients, as illustrated by a workflow 3400 in FIG. 24. The workflow 3400 is an experiment workflow illustrating how assays are analyzed by the QPI microscope system 110. In some embodiments, the QPI microscope system 110 images cells for 48 h, and uses an automatic segmentation algorithm, via the electronic controller 155, to identify individual cells from background, as shown in images 3405 and 3410 of FIG. 24. […] The electronic controller 155 determines the mass of each cell by summing the cell mass over the segmented area. In some embodiments, plots of mass over time reveal single cell growth rates, as shown by graph 3415 of FIG. 24. The graph 3415 is a mass vs. time plot showing DMSO treated cells growing cells at a typical location. Cells outlined in green are shown as green on the plot, other growing cells are shown in purple. […] In some embodiments, EC50 measured by the QPI microscope system 110 is strongly concordant with gold standard techniques such as CTG over 27 conditions (e.g., 9 compounds, 3 breast cancer cell lines). […]

HCI-037 PDxO cells = experiment: QPI on cells from patient-derived organoid HCI-037 (primary lesion); conditions: HCI-037
Description: In some embodiments, the QPI microscope system 110 performs QPI on cells from patient-derived organoids and direct-from-patient samples. For example, the electronic controller 155 analyzes data on cells from a set of 5 organoids representing samples collected from two patients, as illustrated by a workflow 3400 in FIG. 24. The workflow 3400 is an experiment workflow illustrating how assays are analyzed by the QPI microscope system 110. In some embodiments, the QPI microscope system 110 images cells for 48 h, and uses an automatic segmentation algorithm, via the electronic controller 155, to identify individual cells from background, as shown in images 3405 and 3410 of FIG. 24. […] The electronic controller 155 determines the mass of each cell by summing the cell mass over the segmented area. In some embodiments, plots of mass over time reveal single cell growth rates, as shown by graph 3415 of FIG. 24. The graph 3415 is a mass vs. time plot showing DMSO treated cells growing cells at a typical location. Cells outlined in green are shown as green on the plot, other growing cells are shown in purple. The electronic controller 155 determine the specific growth rate (SGR) by fitting a line to time-series mass measurements and normalizing by an initial mass predicted by the fit to account for the effect of cell size on growth rate. The electronic controller 155 fits SGR as a function of dose to a sigmoidal dose response curve using a 3-parameter Hill model to extract dose response measurements, as shown by graph 3420 of FIG. 24. […] In some embodiments, EC50 measured by the QPI microscope system 110 is strongly concordant with gold standard techniques such as CTG over 27 conditions (e.g., 9 compounds, 3 breast cancer cell lines). […] As with cell line data, QPI data on cells from PDxO resolves differences in temporal dynamics of response to therapy, as shown in graph 3425 of FIG. 24. […] In some embodiments, the electronic controller 155 is configured to determine a drug response of each of the plurality of treatment samples from patient derived organoids.
The graphs 3500 includes graph A of the graphs 3500 showing normalized mass vs. time for HCI-037 (primary), HCI-038 (metastatic), and HCI-039 (pleural effusion) showing reduction in growth as concentration increases. Graphs B, C, D, and E of the graphs 3500 show dose response plots showing the differential response between different disease models. Graphs F, G, H, and I of the graphs 3500 show Hellinger distance vs. time plots showing the time of response for the different models treated with various therapies. In some embodiments, HCI-037, HCI-038, and HCI-039, PDxO models are used that are derived from primary lesion, bone metastasis, and pleural effusion, respectively, at different time points from a single patient during the course of treatment and progressive disease. In some embodiments, the electronic controller 155 is configured to determine a difference drug response from patient derived organoids. In some embodiments, the patient derived organoids are tumor organoids.

EC50 compared with HCI-037 (HCI-039 PDxO cells): similar | EC50 compared with HCI-039 (HCI-037 PDxO cells): similar
SMILES: CC[C@H](NC(=O)[C@H](C)NC)C(=O)N1C[C@@H](O)C[C@H]1Cc1c(-c2[nH]c3cc(F)ccc3c2C[C@@H]2C[C@H](O)CN2C(=O)[C@H](CC)NC(=O)[C@H](C)NC)[nH]c2cc(F)ccc12 [birinapant]
time of response compared with HCI-037 (HCI-039 PDxO cells): much faster time of response | response (HCI-038 PDxO cells): no response | depth of response compared with HCI-039 (HCI-037 PDxO cells): much greater depth of response
